{
  "source": "patent EP0021678B1",
  "about": "“1-Sulpho-2-oxoazetidine derivatives, their production and pharmaceutical compositions thereof” (Takeda Chemical Industries, Ltd., priority 1979, dated 1981)",
  "assay_in_all_cases": "Anti-bacterial test, minimum inhibitory concentration on agar",
  "assay_type_in_all_cases": "cell-based",
  "key": {"[1]": {"test_system": "Acinetobacter calcoaceticus IFO 13006", "procedure,_shortened": "(§1)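 Agar-based MIC; media TSA or B-TSA (blood Trypticase soy agar).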"}, "[2]": {"test_system": "Bordetella bronchiseptica Sagami", "procedure,_shortened": "as §1"}, "Candida albicans TA": {"test_system": "Candida albicans TA", "procedure,_shortened": "as §1"}, "[3]": {"test_system": "Citrobacter freundii IFO 12681", "procedure,_shortened": "as §1"}, "[4]": {"test_system": "Corynebacterium diphtheriae Toronto", "procedure,_shortened": "as §1"}, "[5]": {"test_system": "Enterobacter cloacae IFO 12937", "procedure,_shortened": "as §1"}, "[6]": {"test_system": "Escherichia coli NIHJ JC—2", "procedure,_shortened": "as §1"}, "Escherichia coli O—111": {"test_system": "Escherichia coli O—111", "conditions": "medium TSA", "procedure,_shortened": "as §1"}, "Escherichia coli T-7": {"test_system": "Escherichia coli T-7", "procedure,_shortened": "as §1"}, "Klebsiella pneumoniae DT": {"test_system": "Klebsiella pneumoniae DT", "procedure,_shortened": "as §1"}, "[7]": {"test_system": "Proteus mirabilis IFO 3849", "procedure,_shortened": "as §1"}, "[8]": {"test_system": "Proteus morganii IFO 3168", "procedure,_shortened": "as §1"}, "[9]": {"test_system": "Proteus vulgaris IFO 3988", "procedure,_shortened": "as §1"}, "[10]": {"test_system": "Pseudomonas aeruginosa IFO 3455", "procedure,_shortened": "as §1"}, "[11]": {"test_system": "Pseudomonas aeruginosa U 31", "procedure,_shortened": "as §1"}, "[12]": {"test_system": "Serratia marcescens IFO 12648", "procedure,_shortened": "as §1"}, "[13]": {"test_system": "Staphylococcus aureus 1840", "procedure,_shortened": "as §1"}, "[14]": {"test_system": "Staphylococcus aureus 308A—1", "procedure,_shortened": "as §1"}, "[15]": {"test_system": "Staphylococcus aureus FDA209P", "conditions": "for Minimum inhibitory concentration: Staphylococcus aureus FDA209P", "procedure,_shortened": "as §1"}, "[16]": {"test_system": "Streptococcus faecium IFO 3128", "procedure,_shortened": "as §1"}, "[17]": {"test_system": "Streptococcus mitis America", "procedure,_shortened": "as §1"}, "[18]": {"test_system": "Streptococcus pneumoniae Type I", "procedure,_shortened": "as §1"}, "[19]": {"test_system": "Streptococcus pyogenes E—14", "procedure,_shortened": "as §1"}, "[20]": {"test_system": "Streptococcus pyogenes S—8", "procedure,_shortened": "as §1"}, "[21]": {"conditions": "Streptococcus pyogenes, read-out: Minimum inhibitory concentration"}},
  "data": [
    {"smiles": "CON=C(C(=O)NC1CN(S(=O)(=O)[O-])C1=O)c1csc(N)n1.[Na+]", "note": "(centres unmarked) [Compound A, Sodium 3-[2-(2-amino-4-thiazolyl)-2-methoxyiminoacetamido]-2-oxo-azetidine-1-sulphonate]", "values": [
      {"measurement": "MIC", "setting": "[1]; Acinetobacter calcoaceticus, IFO13006, read-out: Minimum inhibitory concentration", "value": 6.25, "unit": "µg/mL"},
      {"measurement": "MIC", "setting": "[2]; Bordetella bronchiseptica, read-out: Minimum inhibitory concentration", "value": 100, "unit": "µg/mL"},
      {"measurement": "MIC", "setting": "Candida albicans TA; Candida albicans, read-out: Minimum inhibitory concentration", "value": "> 100", "unit": "µg/mL"},
      {"measurement": "MIC", "setting": "[3]; Citrobacter freundii, IFO12681, read-out: Minimum inhibitory concentration", "value": 1.56, "unit": "µg/mL"},
      {"measurement": "MIC", "setting": "[4]; Corynebacterium diphtheriae, read-out: Minimum inhibitory concentration", "value": 1.56, "unit": "µg/mL"},
      {"measurement": "MIC", "setting": "[5]; Enterobacter cloacae, IFO12937, read-out: Minimum inhibitory concentration", "value": "> 100", "unit": "µg/mL"},
      {"measurement": "MIC", "setting": "[6]; Escherichia coli, read-out: Minimum inhibitory concentration", "value": 0.78, "unit": "µg/mL"},
      {"measurement": "MIC", "setting": "Escherichia coli O—111", "value": 0.39, "unit": "µg/mL"},
      {"measurement": "MIC", "setting": "Escherichia coli T-7; T7, medium TSA", "value": "> 100", "unit": "µg/mL"},
      {"measurement": "MIC", "setting": "Klebsiella pneumoniae DT; Klebsiella pneumoniae, read-out: Minimum inhibitory concentration", "value": 0.78, "unit": "µg/mL"},
      {"measurement": "MIC", "setting": "[7]; Proteus mirabilis, IFO3849, read-out: Minimum inhibitory concentration", "value": 6.25, "unit": "µg/mL"},
      {"measurement": "MIC", "setting": "[8]; Morganella morganii, IFO3168, read-out: Minimum inhibitory concentration", "value": 25, "unit": "µg/mL"},
      {"measurement": "MIC", "setting": "[9]; Proteus vulgaris, IFO3988, read-out: Minimum inhibitory concentration", "value": 1.56, "unit": "µg/mL"},
      {"measurement": "MIC", "setting": "[10]; Pseudomonas aeruginosa, IFO3455, read-out: Minimum inhibitory concentration", "value": 6.25, "unit": "µg/mL"},
      {"measurement": "MIC", "setting": "[11]; Pseudomonas aeruginosa, U31, read-out: Minimum inhibitory concentration", "value": "> 100", "unit": "µg/mL"},
      {"measurement": "MIC", "setting": "[12]; Serratia marcescens, IFO12648, read-out: Minimum inhibitory concentration", "value": 12.5, "unit": "µg/mL"},
      {"measurement": "MIC", "setting": "[13]; Staphylococcus aureus, 1840, read-out: Minimum inhibitory concentration", "value": 100, "unit": "µg/mL"},
      {"measurement": "MIC", "setting": "[14]; Staphylococcus aureus, read-out: Minimum inhibitory concentration", "value": 25, "unit": "µg/mL"},
      {"measurement": "Minimum inhibitory concentration", "setting": "[15]; medium B—TSA", "value": 50, "unit": "µg/mL"},
      {"measurement": "MIC", "setting": "[15]; Staphylococcus aureus, FDA209P, read-out: Minimum inhibitory concentration", "value": 50, "unit": "µg/mL"},
      {"measurement": "MIC", "setting": "[16]; Enterococcus faecium, IFO3128, read-out: Minimum inhibitory concentration", "value": "> 100", "unit": "µg/mL"},
      {"measurement": "MIC", "setting": "[17]; Streptococcus mitis, read-out: Minimum inhibitory concentration", "value": 25, "unit": "µg/mL"},
      {"measurement": "MIC", "setting": "[18]; Streptococcus pneumoniae, read-out: Minimum inhibitory concentration", "value": 12.5, "unit": "µg/mL"},
      {"measurement": "MIC", "setting": "[19]; [21]", "value": 3.13, "unit": "µg/mL"},
      {"measurement": "MIC", "setting": "[20]; [21]", "value": 3.13, "unit": "µg/mL"}
    ]},
    {"smiles": "CCN1CCN(C(=O)NC(C(=O)NC2CN(S(=O)(=O)[O-])C2=O)c2cccs2)C(=O)C1=O.[Na+]", "note": "(racemic) [Compound E, Sodium 3-[DL-2-(4-ethyl-2,3-dioxo-1-piperazinocarboxamido)-2-thienylacetamido]-2-oxoazetidine-1-sulphonate]", "values": [
      {"measurement": "Minimum inhibitory concentration", "setting": "[1]; Acinetobacter calcoaceticus IFO 13006, medium TSA", "value": 50, "unit": "µg/mL"},
      {"measurement": "Minimum inhibitory concentration", "setting": "[2]; Bordetella bronchiseptica Sagami, medium B—TSA", "value": ">100", "unit": "µg/mL"},
      {"measurement": "Minimum inhibitory concentration", "setting": "Candida albicans TA; Candida albicans TA, medium TSA", "value": ">100", "unit": "µg/mL"},
      {"measurement": "Minimum inhibitory concentration", "setting": "[3]; Citrobacter freundii IFO 12681, medium TSA", "value": 3.13, "unit": "µg/mL"},
      {"measurement": "Minimum inhibitory concentration", "setting": "[4]; Corynebacterium diphtheriae Toronto, medium B—TSA", "value": 0.39, "unit": "µg/mL"},
      {"measurement": "Minimum inhibitory concentration", "setting": "[5]; Enterobacter cloacae IFO 12937, medium TSA", "value": 3.13, "unit": "µg/mL"},
      {"measurement": "Minimum inhibitory concentration", "setting": "[6]; Escherichia coli NIHJ JC—2, medium TSA", "value": 1.56, "unit": "µg/mL"},
      {"measurement": "Minimum inhibitory concentration", "setting": "Escherichia coli O—111", "value": 0.2, "unit": "µg/mL"},
      {"measurement": "Minimum inhibitory concentration", "setting": "Escherichia coli T-7; medium TSA", "value": ">100", "unit": "µg/mL"},
      {"measurement": "Minimum inhibitory concentration", "setting": "Klebsiella pneumoniae DT; Klebsiella pneumoniae DT, medium TSA", "value": 0.78, "unit": "µg/mL"},
      {"measurement": "Minimum inhibitory concentration", "setting": "[7]; Proteus mirabilis IFO 3849, medium TSA", "value": 0.78, "unit": "µg/mL"},
      {"measurement": "Minimum inhibitory concentration", "setting": "[8]; Proteus morganii IFO 3168, medium TSA", "value": 12.5, "unit": "µg/mL"},
      {"measurement": "Minimum inhibitory concentration", "setting": "[9]; Proteus vulgaris IFO 3988, medium TSA", "value": "<0.1", "unit": "µg/mL"},
      {"measurement": "Minimum inhibitory concentration", "setting": "[10]; Pseudomonas aeruginosa IFO 3455, medium TSA", "value": 3.13, "unit": "µg/mL"},
      {"measurement": "Minimum inhibitory concentration", "setting": "[11]; Pseudomonas aeruginosa U 31, medium TSA", "value": ">100", "unit": "µg/mL"},
      {"measurement": "Minimum inhibitory concentration", "setting": "[12]; Serratia marcescens IFO 12648, medium TSA", "value": 3.13, "unit": "µg/mL"},
      {"measurement": "Minimum inhibitory concentration", "setting": "[13]; Staphylococcus aureus 1840, medium TSA", "value": 25, "unit": "µg/mL"},
      {"measurement": "Minimum inhibitory concentration", "setting": "[14]; Staphylococcus aureus 308A—1, medium TSA", "value": 6.25, "unit": "µg/mL"},
      {"measurement": "Minimum inhibitory concentration", "setting": "[15]; medium B—TSA", "value": 6.25, "unit": "µg/mL"},
      {"measurement": "Minimum inhibitory concentration", "setting": "[15]; medium TSA", "value": 6.25, "unit": "µg/mL"},
      {"measurement": "Minimum inhibitory concentration", "setting": "[16]; Streptococcus faecium IFO 3128, medium B—TSA", "value": ">100", "unit": "µg/mL"},
      {"measurement": "Minimum inhibitory concentration", "setting": "[17]; Streptococcus mitis America, medium B—TSA", "value": 25, "unit": "µg/mL"},
      {"measurement": "Minimum inhibitory concentration", "setting": "[18]; Streptococcus pneumoniae Type I, medium B—TSA", "value": 3.13, "unit": "µg/mL"},
      {"measurement": "Minimum inhibitory concentration", "setting": "[19]; Streptococcus pyogenes E—14, medium B—TSA", "value": 1.56, "unit": "µg/mL"},
      {"measurement": "Minimum inhibitory concentration", "setting": "[20]; Streptococcus pyogenes S—8, medium B—TSA", "value": 3.13, "unit": "µg/mL"}
    ]}
  ]
}
